Read-outs that look alike come from different tables or passages of the source. Non-standard residues stand in square brackets, D forms with d. Residues, ends and D or L forms follow the SMILES beside them. *: point of attachment. X1 = C[C@]12CC[C@H]3[C@@H](CCC4=CC(=O)CC[C@@]43C)[C@@H]1CC[C@@H]2C(=O)COC(=O)CCC(=O)*; dPhe(4-Cl) = N[C@H](Cc1ccc(Cl)cc1)C(=O)O; dPhe(4-F) = N[C@H](Cc1ccc(F)cc1)C(=O)O; d2Nal = N[C@H](Cc1ccc2ccccc2c1)C(=O)O; d3Pal = N[C@H](Cc1cccnc1)C(=O)O; ΔPro = O=C(O)[C@@H]1C=CCN1
What was measured:
[1] = target: T1, cortisol binding globulin (CBG) (Homo sapiens, UniProt P08185); experiment: Plasma protein binding assay, competition with [3H]cortisol in human pregnant serum; details: data not shown, read-out: IC50, prevention of [3H]cortisol binding
T1 construct: from tissue; host or cells: human pregnant serum (charcoal-stripped, diluted)
T1 sequence (P08185 23-405): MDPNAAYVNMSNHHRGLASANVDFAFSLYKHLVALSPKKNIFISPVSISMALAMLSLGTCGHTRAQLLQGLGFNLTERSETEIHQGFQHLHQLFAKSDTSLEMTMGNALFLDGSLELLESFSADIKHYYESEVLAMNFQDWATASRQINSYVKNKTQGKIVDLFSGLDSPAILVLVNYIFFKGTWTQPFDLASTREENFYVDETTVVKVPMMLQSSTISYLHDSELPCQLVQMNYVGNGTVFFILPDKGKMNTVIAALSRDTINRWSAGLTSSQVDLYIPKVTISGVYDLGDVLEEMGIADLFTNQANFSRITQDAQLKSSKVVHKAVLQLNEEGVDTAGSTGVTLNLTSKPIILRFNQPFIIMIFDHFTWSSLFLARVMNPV
Description: (§1) Plasma Protein Binding Assay
(§2) Plasma protein binding was determined by the competitive binding of steroid conjugates, in the presence of [1,2,6,7-^3H]progesterone or [^3H]cortisol, to pregnant guinea pig plasma or human pregnant serum respectively. 20 μl serum was diluted with 2 ml dextran-coated charcoal solution (0.25 g dextran T-70, 2.5 g charcoal decolorizing powder, activated acid washed [Merck Ltd., Lutterworth, Leicestershire] in 500 ml PBS) and incubated at room temperature. After 30 mins the suspension was centrifuged at 3000×g for 10 minutes, the supernatant was removed and the pellet was discarded. 100 μl of diluted serum was aliquoted into centrifuge tubes, followed by 1 pmol[^3H]steroid/100 μl PBS. 100 μl PBS (total binding) or 200 pmol/100 μl unlabelled competing ligand ([…]) was added to diluted serum in duplicate. Tubes were vortexed and incubated at room temperature for 1 hour, then for an additional 15 minutes on ice. A further 750 μl dextran-coated charcoal suspension was added and incubated for 10 minutes on ice, followed by centrifugation at 4° C. for 5 minutes. The supernatant fluid was counted.

[2] = system: progesterone binding globulin (PBG); experiment: Plasma protein binding assay, competition with [3H]progesterone in pregnant guinea pig plasma; details: for IC50: read-out: IC50, inhibition of [3H]progesterone binding to PBG
Description: as §1, §2

[3] = system: cycling adult female marmosets; experiment: In vivo female marmoset study, inhibition of corpus luteum function; parameters: species or system Callithrix jacchus; details: one animal; for duration of the luteal phase after treatment: mid-luteal phase
Description: (§3) In Vivo Studies in the Male and Female Common Marmoset (Callithrix Jacchus)
Female marmoset studies: To identify the effective dose required to inhibit corpus luteum function, 1.0, 0.5 or 0.25 mg of GnRH antagonist-steroid conjugate was administered as subcutaneous bolus in 1 ml saline at two sites during mid-luteal phase. Progesterone concentrations were monitored by RIA. One 300 μl blood sample was withdrawn on the day prior to GnRH antagonist injection. Further blood samples of equal size were withdrawn at 0, 4 and 8 hours on day of injection and on the following 3 days. Blood samples were taken three times per week until the next ovulation.

male marmosets = experiment: In vivo male marmoset study, plasma testosterone after s.c. injection; parameters: species or system Callithrix jacchus; details: 0.5 mg s.c.
Description: as §3
Male marmoset studies: To determine duration of action at GnRH receptor, 0.5 mg GnRH antagonist-steroid conjugate was administered as subcutaneous bolus in 1 ml saline at two sites in six adult male marmosets. Testosterone concentrations were monitored by RIA. GnRH antagonist (0.5 mg) was administered as a subcutaneous bolus in 1 ml saline at two sites in three marmosets. Testosterone concentrations were monitored. One 300 μl blood sample was withdrawn on the day prior to GnRH antagonist injection and at 0 hours, 4 hours and 8 hours on the day of injection and on the following 3 days. Three further samples were taken during the subsequent week.

[4] = In vivo male rabbit study, disappearance of iodinated analogue from whole blood; details: rabbit, in vivo, iv
Description: In Vivo Studies in the Male Rabbit
To determine biological half-life of GnRH agonist-progesterone conjugates, 0.5 ml saline containing approximately 10,000,000 cpm of iodinated [D-Ala^6]GnRH or [D-Lys^6]GnRH-progesterone conjugate was injected as an i.v. bolus into the ear vein of a male rabbit. Rabbits were sedated with 0.4 ml Aceprom 10 (Milborrow Animal Health, Republic of South Africa) injected intramuscularly 3-4 minutes before start of experiment. A repeat injection was carried out after 2 hours. 1 ml blood samples were collected in heparinized tubes from an indwelling cannula placed in a vein of the contralateral ear. Whole blood was counted directly to determine disappearance from circulation. All experiments were carried out in accordance with Republic of South Africa regulations.

For `C[C@]12CCC(=O)C=C1CC[C@@H]1[C@@H]2[C@@H](O)C[C@@]2(C)[C@H]1CC[C@]2(O)C(=O)CO` [cortisol, reference compound], the IC50 [1] was 6.7 nM and the “inhibition of specific [3H]progesterone binding (specificity)” value [2] was “failure of cortisol to inhibit specific [^3H]progesterone binding”.

In the case of `CC(=O)N[C@H](Cc1ccc2ccccc2c1)C(=O)N[C@H](Cc1ccc(Cl)cc1)C(=O)N[C@H](Cc1cccnc1)C(=O)N[C@@H](CO)C(=O)N[C@@H](CCCNC(=N)N)C(=O)N[C@H](CCCCNC(=O)CCC(=O)OCC(=O)[C@H]1CC[C@H]2[C@@H]3CCC4=CC(=O)CC[C@]4(C)[C@H]3CC[C@]12C)C(=O)N[C@@H](CC(C)C)C(=O)N[C@@H](CCCNC(=N)N)C(=O)N1CCC[C@H]1C(=O)N[C@H](C)C(N)=O` [antagonist A-progesterone, AcD-Nal-D-Cpa-D-Pal-Ser-Arg-D-Lys-Leu-Arg-Pro-D-Ala-NH2 conjugated to 21-hydroxyprogesterone 21-succinate at the ε amine of D-Lys at position 6] (Ac-[d2Nal][dPhe(4-Cl)][d3Pal]SR[dK](X1)LRP[dA]-NH2), the “luteal regression and subsequent ovulation” value ([3]; 0.25 mg s.c.) is reported as “full luteal regression and subsequent ovulation did not occur”, the plasma progesterone concentrations ([3]; 0.25 mg s.c.) is reported as “transient reduction in plasma progesterone concentrations” and the “duration of the luteal phase after treatment” value ([3]; 0.5 mg s.c., before 21.0±1.2 days) is reported as 11 days. For the same molecule, the “duration of the luteal phase after treatment” value ([3]; 1.0 mg s.c., before 24.8±2.2 days) was 8 days, the IC50 ([2]; listed as antagonist A-progesterone conjugate) was 1000 nM and the IC50 ([2]; listed as antagonist peptide A-progesterone) was 850 nM. For the same molecule, the “day by which testosterone had recovered” value (male marmosets) was ≤ 6 days, the “effect on plasma testosterone concentrations” value (male marmosets) was “rapidly decreased testosterone concentrations” and the “time to which reduction in testosterone concentration was maintained post-injection” value (male marmosets) was “at least 72 hours”.

In the case of [D-Ala^6]GnRH [reference compound], the “second phase half-life (metabolism and renal clearance)” value [4] is reported as 21 ± 3 min.

Molecule `CC(=O)N1CC=C[C@H]1C(=O)N[C@H](Cc1ccc(F)cc1)C(=O)N[C@H](Cc1c[nH]c2ccccc12)C(=O)N[C@@H](CO)C(=O)N[C@@H](Cc1ccc(O)cc1)C(=O)N[C@H](CCCCNC(=O)CCC(=O)OCC(=O)[C@H]1CC[C@H]2[C@@H]3CCC4=CC(=O)CC[C@]4(C)[C@H]3CC[C@]12C)C(=O)N[C@@H](CC(C)C)C(=O)N[C@@H](CCCNC(=N)N)C(=O)N1CCC[C@H]1C(=O)NCC(N)=O` [antagonist B-progesterone, Ac-ΔPro-D-Fpa-D-Trp-Ser-Tyr-D-Lys-Leu-Arg-Pro-Gly-NH2 conjugated to 21-hydroxyprogesterone 21-succinate at the ε amine of D-Lys at position 6] (Ac-[ΔPro][dPhe(4-F)][dW]SY[dK](X1)LRPG-NH2) has an IC50 ([2]; listed as antagonist B-progesterone conjugate) of 530 nM and an IC50 ([2]; listed as antagonist peptide B-progesterone) of 450 nM.

For `CC(=O)N[C@H](Cc1ccc2ccccc2c1)C(=O)N[C@H](Cc1ccc(Cl)cc1)C(=O)N[C@H](Cc1cccnc1)C(=O)N[C@@H](CO)C(=O)N[C@@H](CCCNC(=N)N)C(=O)N[C@H](CCCCN)C(=O)N[C@@H](CC(C)C)C(=O)N[C@@H](CCCNC(=N)N)C(=O)N1CCC[C@H]1C(=O)N[C@H](C)C(N)=O` [antagonist A, [AcD-Nal^1,D-Cpa^2,D-Pal^3,Arg^5,D-Lys^6,D-Ala^10]GnRH, reference compound] (Ac-[d2Nal][dPhe(4-Cl)][d3Pal]SR[dK]LRP[dA]-NH2), the “effect on plasma testosterone concentrations” value (male marmosets) was “rapid decline in plasma testosterone concentrations”, the “time by which testosterone had increased again” value (male marmosets) was ≤ 24 h and the “time to which reduction in testosterone concentration was maintained post-injection” value (male marmosets) was 8 h.

`CC(=O)[C@H]1CC[C@H]2[C@@H]3CCC4=CC(=O)CC[C@]4(C)[C@H]3CC[C@]12C` [progesterone, reference compound] gave an IC50 [1] of 73 nM and an IC50 [2] of 96 nM.

— patent publication US7700559B2, “Gonadotropin releasing hormone analogues conjugates with steroid hormones” (Medical Research Council, priority 2003, dated 2010)
